molecular target: histone deacetylase (HDAC Enzyme); assay: Inhibition of Histone Deacetylase Enzymatic Activity (Boc-Lys(Ac)-AMC, Fluor-de-Lys developer); assay type: biochemical; conditions: Table 9; read-out: HDAC Inhibition (IC50 μM) HDAC Enzyme
Description: The following protocol is used to assay the compounds of the invention.
The mixture is pre-incubated for 5 minutes at room temperature. The reaction is started by bringing the temperature to 37° C. and adding 16 μl substrate. Total reaction volume is 50 μl.
In the Tables 8, 9 and 10, A≦[…]<B≦0.1 μM; 0.1 μM<C≦1 μM; and 1 μM<D≦10 μM.

IC50 [µM]	Compound
0.1 to 1	O=C(NO)c1ccc(N2C[C@@H]3C[C@H]2CN3c2cccc(C(F)(F)F)c2)cc1F [2-fluoro-N-hydroxy-4-((1S,4S)-5-(3-(trifluoromethyl)phenyl)-2,5-diazabicyclo[2.2.1]heptan-2-yl)benzamide]
0.1 to 1	N#Cc1cccc(N2C[C@@H]3C[C@H]2CN3c2ccc(C(=O)NO)cc2)c1 [4-((1S,4S)-5-(3-cyanophenyl)-2,5-diazabicyclo[2.2.1]heptan-2-yl)-N-hydroxybenzamide]
< 0.05	O=C(NO)c1cnc(N2C[C@@H]3C[C@H]2CN3C(=O)OCc2ccccc2)nc1 [(1S,4S)-benzyl 5-(5-(hydroxycarbamoyl)pyrimidin-2-yl)-2,5-diazabicyclo[2.2.1]heptane-2-carboxylate]
< 0.05	CC(C)OC(=O)N1C[C@@H]2C[C@H]1CN2c1ncc(C(=O)NO)cn1 [(1S,4S)-isopropyl 5-(5-(hydroxycarbamoyl)pyrimidin-2-yl)-2,5-diazabicyclo[2.2.1]heptane-2-carboxylate]
< 0.05	O=C(NO)c1cnc(N2C[C@@H]3C[C@H]2CN3C(=O)OCc2cccnc2)nc1 [(1S,4S)-pyridin-3-ylmethyl 5-(5-(hydroxycarbamoyl)pyrimidin-2-yl)-2,5-diazabicyclo[2.2.1]heptane-2-carboxylate]

The next lines start with the compound.

Compound	IC50 [µM]
O=C(NO)c1cnc(N2C[C@@H]3C[C@H]2CN3C(=O)OC2CCCC2)nc1 [(1S,4S)-cyclopentyl 5-(5-(hydroxycarbamoyl)pyrimidin-2-yl)-2,5-diazabicyclo[2.2.1]heptane-2-carboxylate]	< 0.05
O=C(NO)c1cnc(N2C[C@@H]3C[C@H]2CN3C(=O)OCC2CC2)nc1 [(1S,4S)-cyclopropylmethyl 5-(5-(hydroxycarbamoyl)pyrimidin-2-yl)-2,5-diazabicyclo[2.2.1]heptane-2-carboxylate]	< 0.05
CC(C)COC(=O)N1C[C@@H]2C[C@H]1CN2c1ncc(C(=O)NO)cn1 [(1S,4S)-isobutyl 5-(5-(hydroxycarbamoyl)pyrimidin-2-yl)-2,5-diazabicyclo[2.2.1]heptane-2-carboxylate]	< 0.05
CC(C)(C)OC(=O)N1C[C@@H]2C[C@H]1CN2c1ncc(C(=O)NO)cn1 [(1S,4S)-tert-butyl 5-(5-(hydroxycarbamoyl)pyrimidin-2-yl)-2,5-diazabicyclo[2.2.1]heptane-2-carboxylate]	< 0.05
O=C(NO)c1cnc(N2C[C@@H]3C[C@H]2CN3C(=O)OC2CCOCC2)nc1 [(1S,4S)-tetrahydro-2H-pyran-4-yl 5-(5-(hydroxycarbamoyl)pyrimidin-2-yl)-2,5-diazabicyclo[2.2.1]heptane-2-carboxylate]	< 0.05

same assay, conditions: Table 10; read-out: HDAC Inhibition (IC50 μM) HDAC Enzyme

IC50 [µM]	Compound
1 to 10	O=C(NO)c1cnc(ON=C(c2ccccc2)c2ccccc2)nc1 [2-(diphenylmethyleneaminooxy)-N-hydroxypyrimidine-5-carboxamide]
0.1 to 1	O=C(NO)c1cccc(CN2c3ccccc3Sc3ccccc32)c1 [3-((10H-phenothiazin-10-yl)methyl)-N-hydroxybenzamide]
1 to 10	O=C(NO)c1cccc(CN2c3ccccc3Oc3ccccc32)c1 [3-((10H-phenoxazin-10-yl)methyl)-N-hydroxybenzamide]
1 to 10	O=C(CCCN1C(=O)c2cccnc2N(C2CC2)c2ccccc21)NO [4-(11-cyclopropyl-5-oxo-5H-benzo[b]pyrido[2,3-e][1,4]diazepin-6(11H)-yl)-N-hydroxybutanamide]
0.1 to 1	O=C(NO)c1ccc(CN2C(=O)c3cccnc3N(C3CC3)c3ccccc32)cc1 [4-((11-cyclopropyl-5-oxo-5H-benzo[b]pyrido[2,3-e][1,4]diazepin-6(11H)-yl)methyl)-N-hydroxybenzamide]
< 0.05	O=C(NO)c1ccc(CNC(c2ccccc2)c2ccccc2)cc1 [4-((benzhydrylamino)methyl)-N-hydroxybenzamide]
0.1 to 1	O=C(NO)c1ccc(CN(c2ccccc2)c2ccccc2)cc1 [4-((diphenylamino)methyl)-N-hydroxybenzamide]
0.1 to 1	O=C(CCCCCCC(=O)N1Cc2ccccc2Oc2ccccc21)NO [8-(dibenzo[b,f][1,4]oxazepin-10(11H)-yl)-N-hydroxy-8-oxooctanamide]
0.05 to 0.1	O=C(/C=C/c1ccc(CN2c3ccccc3C=Cc3ccccc32)cc1)NO [(E)-3-(4-(((Z)-5H-dibenzo[b,f]azepin-5-yl)methyl)phenyl)-N-hydroxyacrylamide]
0.1 to 1	O=C(/C=C/c1ccc2c(c1)C=Cc1ccccc1N2CC1CC1)NO [(E)-3-((Z)-5-(cyclopropylmethyl)-5H-dibenzo[b,f]azepin-2-yl)-N-hydroxyacrylamide]

The next lines start with the compound.

Compound	IC50 [µM]
O=C(NO)c1cnc(NC(c2ccccc2)c2ccccc2)nc1 [2-(benzhydrylamino)-N-hydroxypyrimidine-5-carboxamide]	< 0.05
O=C(NO)c1cnc(OC(c2ccc(F)cc2)c2ccc(F)cc2)nc1 [2-(bis(4-fluorophenyl)methoxy)-N-hydroxypyrimidine-5-carboxamide]	0.1 to 1
O=C(NO)c1cnc(NC(c2ccc(F)cc2)c2ccc(F)cc2)nc1 [2-(bis(4-fluorophenyl)methylamino)-N-hydroxypyrimidine-5-carboxamide]	< 0.05
O=C(NO)c1cccc(CN(c2ccccc2)c2ccccc2)c1 [3-((diphenylamino)methyl)-N-hydroxybenzamide]	1 to 10
O=C(NO)c1ccc(Cn2c3c(c4ccccc42)CCCCCC3)cc1 [4-((6,7,8,9,10,11-hexahydro-5H-cycloocta[b]indol-5-yl)methyl)-N-hydroxybenzamide]	0.1 to 1
O=C(NO)c1ccc(CNC2c3ccccc3COc3ccccc32)cc1 (stereo not shown) [4-((6,11-dihydrodibenzo[b,e]oxepin-11-ylamino)methyl)-N-hydroxybenzamide]	0.1 to 1
O=C(NO)c1ccc(CN2c3ccccc3CCc3ccccc32)cc1 [4-((10,11-dihydro-5H-dibenzo[b,f]azepin-5-yl)methyl)-N-hydroxybenzamide]	< 0.05
O=C(NO)c1ccc(CN2Cc3ccccc3Oc3ccccc32)cc1 [4-(dibenzo[b,f][1,4]oxazepin-10(11H)-ylmethyl)-N-hydroxybenzamide]	< 0.05
O=C(CCCCCN1c2ccccc2CCc2ccccc21)NO [6-(10,11-dihydro-5H-dibenzo[b,f]azepin-5-yl)-N-hydroxyhexanamide]	< 0.05
O=C(CCCCCN1C(=O)c2cccnc2N(C2CC2)c2ccccc21)NO [6-(11-cyclopropyl-5-oxo-5H-benzo[b]pyrido[2,3-e][1,4]diazepin-6(11H)-yl)-N-hydroxyhexanamide]	0.1 to 1
O=C(CCCCCCN1C(=O)c2cccnc2N(C2CC2)c2ccccc21)NO [7-(11-cyclopropyl-5-oxo-5H-benzo[b]pyrido[2,3-e][1,4]diazepin-6(11H)-yl)-N-hydroxyheptanamide]	0.05 to 0.1
O=C(CCCCCCN1Cc2ccccc2Oc2ccccc21)NO [7-(dibenzo[b,f][1,4]oxazepin-10(11H)-yl)-N-hydroxyheptanamide]	0.1 to 1
O=C(CCCCCCCN1C(=O)c2cccnc2N(C2CC2)c2ccccc21)NO [8-(11-cyclopropyl-5-oxo-5H-benzo[b]pyrido[2,3-e][1,4]diazepin-6(11H)-yl)-N-hydroxyoctanamide]	0.1 to 1
O=C(/C=C/c1ccc(CN2C(=O)c3cccnc3N(C3CC3)c3ccccc32)cc1)NO [(E)-3-(4-((11-cyclopropyl-5-oxo-5H-benzo[b]pyrido[2,3-e][1,4]diazepin-6(11H)-yl)methyl)phenyl)-N-hydroxyacrylamide]	< 0.05
CN1C(=O)CN=C(c2ccccc2)c2ccc(/C=C/C(=O)NO)cc21 [(E)-N-hydroxy-3-((Z)-1-methyl-2-oxo-5-phenyl-2,3-dihydro-1H-benzo[e][1,4]diazepin-8-yl)acrylamide]	0.1 to 1
O=C(/C=C/c1ccc2c(c1)NC(=O)CN=C2c1ccccc1)NO [(E)-N-hydroxy-3-((Z)-2-oxo-5-phenyl-2,3-dihydro-1H-benzo[e][1,4]diazepin-8-yl)acrylamide]	0.05 to 0.1

same assay, conditions: read-out: HDAC Inhibtion (IC50 μM) HDAC Enzyme

IC50 [µM]	Compound
< 0.05	O=C(NO)c1ccc(C2Nc3ccccc3Oc3ccccc32)cc1 (stereo not shown) [4-(10,11-dihydrodibenzo[b,f][1,4]oxazepin-11-yl)-N-hydroxybenzamide]
< 0.05	O=C(NO)c1ccc(CNC2=Nc3ccccc3Oc3ccccc32)cc1 [(E)-4-((dibenzo[b,f][1,4]oxazepin-11-ylamino)methyl)-N-hydroxybenzamide]
1 to 10	O=C(NO)c1ccc(C2=Nc3ccccc3Oc3ccccc32)c(F)c1 [(E)-4-(dibenzo[b,f][1,4]oxazepin-11-yl)-3-fluoro-N-hydroxybenzamide]
1 to 10	O=C(NO)c1ccc(C2=Nc3ccccc3Oc3ccccc32)o1 [(E)-5-(dibenzo[b,f][1,4]oxazepin-11-yl)-N-hydroxyfuran-2-carboxamide]
0.1 to 1	O=C(NO)c1ccc(C2=Nc3ccccc3Oc3ccccc32)nc1 [(E)-6-(dibenzo[b,f][1,4]oxazepin-11-yl)-N-hydroxynicotinamide]

The remaining lines, values behind:

Compound	IC50 [µM]
O=C(NO)c1cnc(N2CCN(C3=Nc4ccccc4Oc4ccc(Cl)cc43)CC2)nc1 [(E)-2-(4-(2-chlorodibenzo[b,f][1,4]oxazepin-11-yl)piperazin-1-yl)-N-hydroxypyrimidine-5-carboxamide]	< 0.05
O=C(NO)c1ccc(CCNC2=Nc3ccccc3Oc3ccccc32)cc1 [(E)-4-(2-(dibenzo[b,f][1,4]oxazepin-11-ylamino)ethyl)-N-hydroxybenzamide]	0.1 to 1
O=C(NO)c1ccc(CNC2=Nc3ccccc3N(C3CC3)c3ccccc32)cc1 [(E)-4-((5-cyclopropyl-5H-dibenzo[b,e][1,4]diazepin-11-ylamino)methyl)-N-hydroxybenzamide]	0.1 to 1
O=C(NO)c1ccc(C2=Nc3ccccc3Oc3ccccc32)s1 [(E)-5-(dibenzo[b,f][1,4]oxazepin-11-yl)-N-hydroxythiophene-2-carboxamide]	< 0.05
O=C(NO)c1ccc(-c2ccc3c(c2)C(N2CCOCC2)=Nc2ccccc2O3)cc1 [(E)-N-hydroxy-4-(11-morpholinodibenzo[b,f][1,4]oxazepin-2-yl)benzamide]	< 0.05

Reference: patent publication US8399452B2, “Dibenzo[b,f][1,4]oxazepin-11-yl-N-hydroxybenzamides as HDAC inhibitors” (Methylgene Inc., priority 2006, dated 2013)
